Experimental data taken from paper doi:10.1101/2021.02.22.432362v1 (biorxiv, 2021).
Like-named read-outs stand apart in the source and are kept apart here.

Columns and labels:
BRD8(1) = BRD8(1) (Homo sapiens, UniProt Q9H0E9); assay: AlphaScreen biotin-tracer competition; type: binding
ATAD2A = ATAD2A (Homo sapiens, UniProt Q6PL18); assay: biochemical; details: read-out: % Ctrl (1 uM)
GCN5L2 = GCN5L2 (Homo sapiens, UniProt Q92830); assay: biochemical; details: read-out: % Ctrl (1 uM)
Trim33(PHD,Bromo.) = Trim33(PHD,Bromo.) (Homo sapiens, UniProt Q9UPN9); assay: biochemical; details: read-out: % Ctrl (1 uM)
SMARCA2 = SMARCA2 (Homo sapiens, UniProt P51531); assay: biochemical; details: read-out: % Ctrl (1 uM)
FALZ = FALZ (Homo sapiens, UniProt Q12830); assay: biochemical; details: read-out: % Ctrl (1 uM)
BRD2(2) = BRD2(2) (Homo sapiens, UniProt P25440); assay: biochemical; details: read-out: % Ctrl (1 uM)
PBRM1(2) = PBRM1(2) (Homo sapiens, UniProt Q86U86); assay: biochemical; details: read-out: % Ctrl (1 uM)
BRD3(1) = BRD3(1) (Homo sapiens, UniProt Q15059); assay: biochemical; details: read-out: % Ctrl (1 uM)
BRD9 [1] = target: BRD9 (Homo sapiens, UniProt Q9H8M2); assay: biochemical; details: read-out: % Ctrl (1 uM)
Target sequence in this assay (Q9H8M2 whole entry): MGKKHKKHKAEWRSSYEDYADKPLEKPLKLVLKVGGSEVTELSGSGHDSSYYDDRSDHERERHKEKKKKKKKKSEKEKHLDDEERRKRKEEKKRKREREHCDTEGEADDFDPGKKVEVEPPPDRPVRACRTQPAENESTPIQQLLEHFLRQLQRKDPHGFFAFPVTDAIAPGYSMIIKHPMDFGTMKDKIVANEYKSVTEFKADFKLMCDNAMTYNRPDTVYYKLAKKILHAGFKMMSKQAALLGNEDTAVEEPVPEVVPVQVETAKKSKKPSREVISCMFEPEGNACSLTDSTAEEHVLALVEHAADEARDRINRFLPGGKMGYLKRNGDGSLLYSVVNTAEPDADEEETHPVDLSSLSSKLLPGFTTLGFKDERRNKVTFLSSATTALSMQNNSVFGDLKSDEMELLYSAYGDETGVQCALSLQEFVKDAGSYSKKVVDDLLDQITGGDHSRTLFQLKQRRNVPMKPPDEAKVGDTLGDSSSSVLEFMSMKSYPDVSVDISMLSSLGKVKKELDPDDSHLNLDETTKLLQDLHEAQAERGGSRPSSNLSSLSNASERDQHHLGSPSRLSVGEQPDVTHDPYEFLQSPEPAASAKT

BRD1 = BRD1 (Homo sapiens, UniProt O95696); assay: biochemical; details: read-out: % Ctrl (1 uM)
WDR9(2) = WDR9(2) (Homo sapiens, UniProt Q9NSI6); assay: biochemical; details: read-out: % Ctrl (1 uM)
BAZ2B = BAZ2B (Homo sapiens, UniProt Q9UIF8); assay: biochemical; details: read-out: % Ctrl (1 uM)
BRDT(1) = BRDT(1) (Homo sapiens, UniProt Q58F21); assay: biochemical; details: read-out: % Ctrl (1 uM)
BRD3(2) = BRD3(2) (Homo sapiens, UniProt Q15059); assay: biochemical; details: read-out: % Ctrl (1 uM)
BRD4(1) = BRD4(1) (Homo sapiens, UniProt O60885); assay: biochemical; details: read-out: % Ctrl (1 uM)
CREBBP = CREBBP (Homo sapiens, UniProt Q92793); assay: biochemical; details: read-out: % Ctrl (1 uM)
PBRM1(5) = PBRM1(5) (Homo sapiens, UniProt Q86U86); assay: biochemical; details: read-out: % Ctrl (1 uM)
BRPF3 = BRPF3 (Homo sapiens, UniProt Q9ULD4); assay: biochemical; details: read-out: % Ctrl (1 uM)
BRPF3, sequence (Q9ULD4 whole entry): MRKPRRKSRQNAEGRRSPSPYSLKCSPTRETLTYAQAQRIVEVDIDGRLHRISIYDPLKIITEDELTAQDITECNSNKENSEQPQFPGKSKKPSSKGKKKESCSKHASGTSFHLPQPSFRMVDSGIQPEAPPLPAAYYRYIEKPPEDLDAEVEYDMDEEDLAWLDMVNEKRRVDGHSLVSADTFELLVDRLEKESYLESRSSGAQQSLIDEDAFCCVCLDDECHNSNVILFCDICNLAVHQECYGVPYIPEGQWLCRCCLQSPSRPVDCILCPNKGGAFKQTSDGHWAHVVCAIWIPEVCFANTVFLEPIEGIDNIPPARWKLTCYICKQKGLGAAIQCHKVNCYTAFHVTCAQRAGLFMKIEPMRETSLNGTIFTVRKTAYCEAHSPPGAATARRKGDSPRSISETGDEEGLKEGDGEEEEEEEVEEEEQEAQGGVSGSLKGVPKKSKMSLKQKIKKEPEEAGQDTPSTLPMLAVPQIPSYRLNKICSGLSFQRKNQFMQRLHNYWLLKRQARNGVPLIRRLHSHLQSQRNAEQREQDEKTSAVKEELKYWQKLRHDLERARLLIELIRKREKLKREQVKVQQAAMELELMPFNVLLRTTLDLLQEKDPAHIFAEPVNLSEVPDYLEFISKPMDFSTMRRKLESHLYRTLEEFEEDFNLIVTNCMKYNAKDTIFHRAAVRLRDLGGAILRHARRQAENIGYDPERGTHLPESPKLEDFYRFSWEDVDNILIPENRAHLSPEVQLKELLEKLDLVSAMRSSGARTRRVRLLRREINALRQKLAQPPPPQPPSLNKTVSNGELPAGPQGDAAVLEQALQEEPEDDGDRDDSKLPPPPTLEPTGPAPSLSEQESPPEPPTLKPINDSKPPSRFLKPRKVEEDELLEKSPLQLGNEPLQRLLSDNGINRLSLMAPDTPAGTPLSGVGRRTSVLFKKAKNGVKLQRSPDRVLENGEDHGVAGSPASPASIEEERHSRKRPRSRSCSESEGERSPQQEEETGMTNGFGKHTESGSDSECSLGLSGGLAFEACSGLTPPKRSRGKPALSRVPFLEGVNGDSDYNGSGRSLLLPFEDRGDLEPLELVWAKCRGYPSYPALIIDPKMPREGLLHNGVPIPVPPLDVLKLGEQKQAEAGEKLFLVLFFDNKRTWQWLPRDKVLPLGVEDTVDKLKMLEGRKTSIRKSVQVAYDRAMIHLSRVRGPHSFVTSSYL

TAF1L(2) = TAF1L(2) (Homo sapiens, UniProt Q8IZX4); assay: biochemical; details: read-out: % Ctrl (1 uM)
BAZ2A = BAZ2A (Homo sapiens, UniProt Q9UIF9); assay: biochemical; details: read-out: % Ctrl (1 uM)
TRIM24(PHD,Bromo.) = TRIM24(PHD,Bromo.) (Homo sapiens, UniProt O15164); assay: biochemical; details: read-out: % Ctrl (1 uM)
CECR2 = CECR2 (Homo sapiens, UniProt Q9BXF3); assay: biochemical; details: read-out: % Ctrl (1 uM)
BRD4(2) = BRD4(2) (Homo sapiens, UniProt O60885); assay: biochemical; details: read-out: % Ctrl (1 uM)
TAF1(2) = TAF1(2) (Homo sapiens, UniProt P21675); assay: biochemical; details: read-out: % Ctrl (1 uM)
PCAF = PCAF (Homo sapiens, UniProt Q92831); assay: biochemical; details: read-out: % Ctrl (1 uM)
BRD7 = BRD7 (Homo sapiens, UniProt Q9NPI1); assay: biochemical; details: read-out: % Ctrl (1 uM)
BRD7, sequence (Q9NPI1 whole entry): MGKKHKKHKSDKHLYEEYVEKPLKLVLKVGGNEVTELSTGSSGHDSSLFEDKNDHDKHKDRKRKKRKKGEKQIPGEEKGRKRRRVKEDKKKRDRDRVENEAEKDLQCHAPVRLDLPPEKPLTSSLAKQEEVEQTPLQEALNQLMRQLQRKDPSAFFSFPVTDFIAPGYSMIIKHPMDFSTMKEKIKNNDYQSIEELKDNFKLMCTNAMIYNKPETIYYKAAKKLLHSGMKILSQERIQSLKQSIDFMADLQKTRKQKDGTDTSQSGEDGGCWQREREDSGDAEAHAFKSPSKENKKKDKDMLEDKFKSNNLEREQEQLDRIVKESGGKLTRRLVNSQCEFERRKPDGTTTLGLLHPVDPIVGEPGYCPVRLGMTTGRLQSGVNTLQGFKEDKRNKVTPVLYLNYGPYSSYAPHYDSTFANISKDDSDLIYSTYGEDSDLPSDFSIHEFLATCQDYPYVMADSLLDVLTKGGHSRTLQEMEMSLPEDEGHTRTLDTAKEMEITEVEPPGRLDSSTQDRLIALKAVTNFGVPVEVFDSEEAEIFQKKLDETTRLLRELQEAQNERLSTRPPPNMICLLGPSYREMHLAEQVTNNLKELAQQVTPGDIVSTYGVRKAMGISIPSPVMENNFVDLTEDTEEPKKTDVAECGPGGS

EP300 = EP300 (Homo sapiens, UniProt Q09472); assay: biochemical; details: read-out: % Ctrl (1 uM)
EP300, sequence (Q09472 whole entry): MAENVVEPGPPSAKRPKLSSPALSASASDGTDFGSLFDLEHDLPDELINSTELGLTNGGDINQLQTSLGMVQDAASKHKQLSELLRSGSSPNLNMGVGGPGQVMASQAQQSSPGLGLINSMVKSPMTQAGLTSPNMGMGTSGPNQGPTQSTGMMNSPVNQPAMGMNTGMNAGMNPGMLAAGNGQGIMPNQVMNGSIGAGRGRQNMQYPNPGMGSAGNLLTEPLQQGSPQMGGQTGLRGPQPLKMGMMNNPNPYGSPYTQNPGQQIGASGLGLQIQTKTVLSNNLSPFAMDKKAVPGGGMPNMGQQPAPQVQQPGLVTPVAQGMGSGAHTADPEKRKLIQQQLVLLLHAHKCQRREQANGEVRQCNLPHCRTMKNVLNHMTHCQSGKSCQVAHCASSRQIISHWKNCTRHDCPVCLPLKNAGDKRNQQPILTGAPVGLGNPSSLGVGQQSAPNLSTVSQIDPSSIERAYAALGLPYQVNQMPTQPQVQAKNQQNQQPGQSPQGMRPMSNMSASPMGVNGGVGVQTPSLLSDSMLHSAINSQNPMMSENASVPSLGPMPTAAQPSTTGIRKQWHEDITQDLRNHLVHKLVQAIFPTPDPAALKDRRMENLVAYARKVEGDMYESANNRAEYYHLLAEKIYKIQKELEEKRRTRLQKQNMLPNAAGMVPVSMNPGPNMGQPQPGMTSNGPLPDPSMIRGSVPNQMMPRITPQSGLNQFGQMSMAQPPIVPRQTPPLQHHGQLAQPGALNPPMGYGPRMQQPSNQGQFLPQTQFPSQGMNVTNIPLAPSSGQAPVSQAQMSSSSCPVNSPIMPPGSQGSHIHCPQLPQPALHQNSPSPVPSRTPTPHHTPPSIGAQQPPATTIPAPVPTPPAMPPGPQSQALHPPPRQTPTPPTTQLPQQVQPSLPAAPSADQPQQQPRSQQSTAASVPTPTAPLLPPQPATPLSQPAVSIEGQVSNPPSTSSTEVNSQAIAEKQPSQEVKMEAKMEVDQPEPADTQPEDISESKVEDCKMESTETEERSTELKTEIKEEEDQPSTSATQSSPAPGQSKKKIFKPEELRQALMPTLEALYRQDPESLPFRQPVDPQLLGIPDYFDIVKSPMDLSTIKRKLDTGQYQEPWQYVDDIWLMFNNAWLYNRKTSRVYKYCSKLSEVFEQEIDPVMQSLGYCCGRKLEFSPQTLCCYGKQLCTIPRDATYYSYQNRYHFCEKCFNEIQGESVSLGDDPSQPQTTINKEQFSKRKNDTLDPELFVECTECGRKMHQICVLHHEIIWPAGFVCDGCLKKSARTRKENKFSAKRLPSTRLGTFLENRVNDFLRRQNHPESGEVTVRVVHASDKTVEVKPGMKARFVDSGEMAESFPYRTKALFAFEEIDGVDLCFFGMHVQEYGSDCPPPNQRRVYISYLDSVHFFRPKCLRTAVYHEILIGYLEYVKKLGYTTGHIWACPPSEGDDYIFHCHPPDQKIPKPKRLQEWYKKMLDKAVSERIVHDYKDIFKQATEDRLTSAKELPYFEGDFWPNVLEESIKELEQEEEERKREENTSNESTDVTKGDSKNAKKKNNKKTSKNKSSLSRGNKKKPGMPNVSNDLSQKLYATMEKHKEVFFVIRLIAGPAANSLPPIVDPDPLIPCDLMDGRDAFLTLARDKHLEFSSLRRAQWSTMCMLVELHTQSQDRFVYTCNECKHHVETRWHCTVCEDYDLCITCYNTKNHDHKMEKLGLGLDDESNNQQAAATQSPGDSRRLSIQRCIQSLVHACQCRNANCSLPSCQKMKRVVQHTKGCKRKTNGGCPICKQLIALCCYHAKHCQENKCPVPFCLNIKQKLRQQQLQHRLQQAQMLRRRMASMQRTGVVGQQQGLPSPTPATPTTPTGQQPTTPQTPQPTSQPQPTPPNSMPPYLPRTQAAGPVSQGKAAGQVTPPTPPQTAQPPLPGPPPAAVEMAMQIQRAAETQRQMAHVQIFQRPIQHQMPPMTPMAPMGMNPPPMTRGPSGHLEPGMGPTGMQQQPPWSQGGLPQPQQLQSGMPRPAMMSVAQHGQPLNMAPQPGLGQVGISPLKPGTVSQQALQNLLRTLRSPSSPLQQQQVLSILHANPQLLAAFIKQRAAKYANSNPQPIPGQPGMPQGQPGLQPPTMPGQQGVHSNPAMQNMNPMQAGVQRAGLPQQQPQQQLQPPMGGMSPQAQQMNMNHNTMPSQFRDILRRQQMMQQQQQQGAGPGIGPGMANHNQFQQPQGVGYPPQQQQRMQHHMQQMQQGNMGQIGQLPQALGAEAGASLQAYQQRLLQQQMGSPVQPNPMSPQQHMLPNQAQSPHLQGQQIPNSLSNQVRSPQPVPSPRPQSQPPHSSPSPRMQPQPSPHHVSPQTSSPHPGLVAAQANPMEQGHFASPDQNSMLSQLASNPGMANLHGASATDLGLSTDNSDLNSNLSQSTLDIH

SMARCA4 = SMARCA4 (Homo sapiens, UniProt P51532); assay: biochemical; details: read-out: % Ctrl (1 uM)
ATAD2B = ATAD2B (Homo sapiens, UniProt Q9ULI0); assay: biochemical; details: read-out: % Ctrl (1 uM)
BRDT(2) = BRDT(2) (Homo sapiens, UniProt Q58F21); assay: biochemical; details: read-out: % Ctrl (1 uM)
BRD2(1) = BRD2(1) (Homo sapiens, UniProt P25440); assay: biochemical; details: read-out: % Ctrl (1 uM)
BRPF1 = BRPF1 (Homo sapiens, UniProt P55201); assay: biochemical; details: read-out: % Ctrl (1 uM)
BRD9 [2] = target: BRD9 (Homo sapiens, UniProt Q9H8M2); assay: AlphaScreen tracer competition; type: binding
Target sequence in this assay (Q9H8M2 134-239 limits assumed): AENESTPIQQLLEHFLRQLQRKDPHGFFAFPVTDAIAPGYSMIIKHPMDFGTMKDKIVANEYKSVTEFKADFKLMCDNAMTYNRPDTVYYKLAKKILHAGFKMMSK

BRD8(1), sequence (Q9H0E9 706-811 limits assumed): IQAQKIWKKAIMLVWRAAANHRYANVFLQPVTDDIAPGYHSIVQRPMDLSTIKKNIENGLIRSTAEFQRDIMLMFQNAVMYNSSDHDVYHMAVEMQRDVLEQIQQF

Q: `COc1cc(-c2cn(C)c(=O)c3cnccc23)cc(OC)c1CN(C)C` [BI-7273] was tested. Which IC50 (BRD8(1); tracer: compound 1-biotin) did it give?
A: less potently by I-BRD9 and BI-7273

Q: For `COc1cc(-c2cn(C)c(=O)c3cnccc23)c(OC)cc1CN(C)C` [BI-9564], which IC50 (BRD8(1); tracer: compound 1-biotin) is on record?
A: 970 nM

Q: For `COc1cc(CN2CC(N)C2)cc(OC)c1-c1cn(C)c(=O)c2cc(F)ccc12` [DN02], which remaining activity at 1 µM (ATAD2A) is on record?
A: 100%

Q: And the remaining activity at 1 µM (GCN5L2)?
A: 86%

Q: What about the remaining activity at 1 µM (Trim33(PHD,Bromo.)) of the same compound?
A: 92%

Q: And the remaining activity at 1 µM (SMARCA2)?
A: 74%

Q: And the remaining activity at 1 µM (FALZ)?
A: 82%

Q: What about the remaining activity at 1 µM (BRD2(2)) of the same compound?
A: 89%

Q: And the remaining activity at 1 µM (PBRM1(2))?
A: 85%

Q: And the remaining activity at 1 µM (BRD3(1))?
A: 76%

Q: What about the remaining activity at 1 µM (BRD9 [1]) of the same compound?
A: 80%

Q: What about the remaining activity at 1 µM (BRD1) of the same compound?
A: 89%

Q: What about the remaining activity at 1 µM (WDR9(2)) of the same compound?
A: 88%

Q: And the remaining activity at 1 µM (BAZ2B)?
A: 84%

Q: And the remaining activity at 1 µM (BRDT(1))?
A: 88%

Q: What about the remaining activity at 1 µM (BRD3(2)) of the same compound?
A: 75%

Q: What about the remaining activity at 1 µM (BRD4(1)) of the same compound?
A: 88%

Q: And the remaining activity at 1 µM (CREBBP)?
A: 9.2%

Q: What about the remaining activity at 1 µM (PBRM1(5)) of the same compound?
A: 87%

Q: What about the remaining activity at 1 µM (BRPF3) of the same compound?
A: 94%

Q: What about the remaining activity at 1 µM (TAF1L(2)) of the same compound?
A: 91%

Q: What about the remaining activity at 1 µM (BAZ2A) of the same compound?
A: 69%

Q: What about the remaining activity at 1 µM (TRIM24(PHD,Bromo.)) of the same compound?
A: 90%

Q: And the remaining activity at 1 µM (CECR2)?
A: 74%

Q: And the remaining activity at 1 µM (BRD4(2))?
A: 94%

Q: And the remaining activity at 1 µM (TAF1(2))?
A: 79%

Q: What about the remaining activity at 1 µM (PCAF) of the same compound?
A: 69%

Q: And the remaining activity at 1 µM (BRD7)?
A: 91%

Q: What about the remaining activity at 1 µM (EP300) of the same compound?
A: 8.4%

Q: What about the remaining activity at 1 µM (SMARCA4) of the same compound?
A: 71%

Q: And the remaining activity at 1 µM (ATAD2B)?
A: 79%

Q: What about the remaining activity at 1 µM (BRDT(2)) of the same compound?
A: 88%

Q: And the remaining activity at 1 µM (BRD2(1))?
A: 72%

Q: What about the remaining activity at 1 µM (BRPF1) of the same compound?
A: 65%

Q: `COc1ccc2ccccc2c1-c1cn(C)c(=O)c2cnccc12` [compound 2] was tested. Which IC50 (BRD9 [2]) did it give?
A: > 10000 nM

Q: Which IC50 (BRD9 [2]) does the source give for `COc1cc(CN(C)C)cc(OC)c1-c1cn(C)c(=O)c2cnccc12` [compound 3] here?
A: > 10000 nM

Q: What about the IC50 (BRD8(1)) of the same compound?
A: 85 nM
